The subject of series [1] is sheep RBC. The experiment in a line: Hemolytic activity, red blood cell leakage assay. As to conditions: 37°C.
Description: To evaluate this hypothesis, the hemolytic activity of the APLs and pro-APLs was measured. Sheep RBC were incubated for 1 h with escalating doses of aqueous dispersion of the compounds at 37°C. At the end of the incubation period, hemoglobin leakage was determined spectrophotometrically.
Thus, in order to better characterize the hemolytic effect of the pro-APLs, the incubation period has been extended and release of hemoglobin was measured after 24 h.
Red blood cell (RBC) leakage assay was carried out according to a previously described procedure
(Evans et al, 2013). RBC were prepared from defibrinated sheep blood. Briefly, blood sample (5 mL) was centrifuged at 500 x g for 5 min. After removal of the yellow upper layer, an equal volume of
Series [2] can be described thus: CMC/CAC by pyrene fluorescent probe technique in ultrapure water. It is filed as physicochemical. As to conditions: pyrene fluorescence.
Series [3] has as its system A549 cells. The experiment in a line: Cytotoxicity, MTT assay, A549. Type of series: cell-based, human. As to conditions: Homo sapiens, A549, 24 h at 37°C. On the technique in general: Tetrazolium assays rely on reduction of a dye to a coloured formazan, in cell work by metabolically active cells.
Series [4] concerns A549 cells. Briefly: Gene transfer efficiency, pCMV-Gluc luciferase reporter gene assay. Type of series: cell-based, human. As to conditions: A549, N/P 3, 1 eq. DOPE. (Reporter assays use an easily measured gene product as a stand-in for the process of interest.)
Excerpt: The efficacy of the pro-APLs to mediate intracellular delivery of a plasmid DNA was examined in A549 human lung epithelial carcinoma cells using the pCMV-Gluc reporter gene encoding the luciferase of Gaussia princeps. This luciferase is secreted by cells and transgene expression can be conveniently assessed by standard bioluminescence measurements on aliquots of the cell culture supernatant, without need for prior cell lysis. Lipoplexes were formulated in glucose 5% at N/P ratios of 1, 3, and 5, with increasing amounts of DOPE as a helper lipid. They were deposited onto cells in the presence of 10% serum and luciferase activity was measured after 24 h (Figure 3). […] The influence of the nature of the pendant hydrophobic arm was also examined.
To investigate the effect of serum on the gene delivery properties of the APL prodrugs, cells were treated with lipoplexes in the presence of an increasing concentration of serum (Figure 5). Two DNA doses were considered.
Figure 5 Transfection efficiency of pro-APLs ME12 (A), PE12 (B), and EE12 (C) as a function of serum content. Pro-APL/DNA complexes were prepared at N/P 3, with 1 molar eq. of DOPE. A549 cells (6,000 cells/well) were seeded into 96-well plates in 100 μL of culture medium containing 10% serum. Twenty-four hours later, cell supernatant was replaced with culture medium complemented with increasing amounts of serum (from 10 to 75%) just before adding the lipoplexes (0.2 and 0.4 μg of DNA per well; light and deep purple bars, resp.). Control (light blue bar) refers to basal bioluminescence measured in untreated cells. […] Statistical significance vs. control. ***p < 0.001, **p < 0.01, *p < 0.05.

One may read the IC50 as the concentration at which inhibition is half-maximal.

`CCCCCCCCCCCCCCCCCCOP(=O)(OCOC(=O)CCCCCCCCCCC)OC1CC[N+](C)(C)CC1.[Cl-]` (stereo not drawn) [PE12, 4-((((Dodecanoyloxy)methoxy)(octadecyloxy)phosphoryl)oxy)-1,1-dimethylpiperidin-1-ium chloride]: the “HA200 (hemolytic activity at 200 μM)” value came to 7.1 ± 0.9% in series [1] (1 h) and 20.6 ± 5.9% in series [1] (24 h). Besides, the “CMC (APLs) / CAC (pro-APLs)” value in series [2] is 2.9 ± 1.0 µM. In addition, in series [3], the IC50 is 139 ± 4 µM. In addition, the “Serum content up to which significant transgene expression was mediated” value in series [4] (DNA dose 0.2 μg/well) was “up to 50 % serum”. Also, the “Serum content up to which transfection activity extended” value in series [4] (DNA dose 0.4 μg/well) is “up to 75 % serum”.
